This is an account of results in patent publication US12390447B2, “Sirtuin 6 protein deacylase (SIRT6) activators” (Wisconsin Alumni Research Foundation, priority 2019, dated 2025).

What is called EC50 is the midpoint of the concentration-response curve. Read a low EC50 as higher potency in that assay.

What all share (assay type): biochemical
For assay [1], the target named is T1, SIRT6 (Homo sapiens, UniProt Q8N6T7). In words: Small molecule SIRT6 activator screen (H3K9ac peptide deacetylation, HPLC). The following applies: compound 100 μM; SIRT6 1 μM; H3K9ac peptide 20 μM; 0.5 mM NAD+. Here is the method: Mastermix containing SIRT6, buffer, and H3K9ac peptide were distributed to wells using Microflex peristaltic dispenser (Beckman). Plates were spun and preheated to 37° C. before addition of NAD^+ using peristaltic dispenser. After 60 minutes reactions were quenched with 2% TFA final using peristaltic dispenser then sealed and spun again before in-house HPLC separation and quantification of substrate and product peptides. Reaction conditions were 1 μM SIRT6, 0.5 mM NAD^+, […] (4-16), 20 mM potassium phosphate pH 7.5, 10% DMSO, and either 10 or 100 μM compound determined by 10-fold dilution of stock library concentration.
All sirtuin deacylation assays were carried out at 37° C. in 20 mM potassium phosphate pH 7.5 with 0.5 mM NAD^+, 10% DMSO, and 20 μM H3K9ac or H3K9myr peptides, unless otherwise noted in legend, and quenched by the addition of 2% TFA final. Steady-state reactions were constrained to less than 20% substrate turnover to prevent product inhibition. A variety of times were required to monitor SIRT6 deacetylation (2-60 minutes) under this restraint given the ability to strongly activate catalysis. In these cases, specific activities were determined and either reported as is or as fold-activation of specific activity. […] Deacetylation reactions were analyzed using a gradient of 33-100% B (30% acetonitrile with 0.05% TFA) in 8 min at 1.6 mL min^−1. Demyristoylation reactions were analyzed using a gradient of 3 to 100% B (acetonitrile with 0.05% TFA) in 10 min at 1.6 mL min^−1. The product and substrate peaks were quantified and ratio of these allowed for quantification of product formation.

Assay [2] concerns the target T1, SIRT6. Description: SIRT6 deacetylation of H3K9ac peptide, fold-activation versus activator concentration. The following applies: for EC50: H3K9ac peptide 20 μM, sigmoidal curve fit. Here is the method:
(1A) Compound libraries BML-2803, BML-2800, and an additional set of 178 molecules were screened at 100 μM for their ability to stimulate SIRT6 (1 μM) deacetylation of H3K9ac peptide (20 μM) in the presence of 0.5 mM NAD^+. SIRT6 activity was measured by HPLC quantification of H3K9ac and deacetylated product (inset) and fold activations relative to DMSO control were determined and compiled. (1B) Fold-activation of SIRT6 (1 μM) determined in the presence of either 0-400 μM CL4, 0-150 μM TTNPB, 0-100 μM Lysophosphatidic acid (LPA), or 0-200 μM linoleoylglycine (LGly). Maximum fold-activation and EC50 determined by sigmoidal curve fit. (1C) Steady-state kinetic analysis of SIRT6 (1 μM) deacetylation was conducted with 0-250 μM H3K9ac peptide in the presence of 100 μM CL4, 50 μM TTNPB, 50 μM LPA, or 50 μM LGly. Constants Km, H3K9ac and kcat were determined by fitting data to Michaelis-Menten equation. (1D) Fold-activations of SIRT1 (0.1 μM), SIRT2 (0.2 μM), SIRT3 (1 μM), SIRT5 (2 μM), and SIRT6 (1 μM) determined in the presence of CL4 (100 μM), TTNPB (50 μM), and LPA (50 μM) relative to DMSO control against 20 μM H3K9ac peptide and 0.5 mM NAD^+. Mean values reported with error bars representing standard deviation of at least three replicates.
All sirtuin deacylation assays were carried out at 37° C. in 20 mM potassium phosphate pH 7.5 with 0.5 mM NAD^+, 10% DMSO, and 20 μM H3K9ac or H3K9myr peptides, unless otherwise noted in legend, and quenched by the addition of 2% TFA final. Steady-state reactions were constrained to less than 20% substrate turnover to prevent product inhibition. A variety of times were required to monitor SIRT6 deacetylation (2-60 minutes) under this restraint given the ability to strongly activate catalysis. In these cases, specific activities were determined and either reported as is or as fold-activation of specific activity. Deacylation reactions were analyzed by reversed phase high-performance liquid chromatography on a Kinetex C18 column (100 Å, 100×4.6 mm, 2.6 μm, Phenomenex) by monitoring the formation of the deacylated product at 214 nm. Deacetylation reactions were analyzed using a gradient of 33-100% B (30% acetonitrile with 0.05% TFA) in 8 min at 1.6 mL min^−1. Demyristoylation reactions were analyzed using a gradient of 3 to 100% B (acetonitrile with 0.05% TFA) in 10 min at 1.6 mL min^−1. The product and substrate peaks were quantified and ratio of these allowed for quantification of product formation. […]

In assay [3] the target is T1, SIRT6. In words: Histone deacetylation assay with acid extracted histones, H3K9ac immunoblot. The following applies: 50 μM compound; histones 75 μg/mL from SAHA-treated HEK293T cells; SIRT6 1 μM. Here is the method: HEK293T cells were cultured in Dulbecco's Modified Eagle Medium supplemented with 10% fetal bovine serum. Cells were treated with 10 μM SAHA for 24 hours prior to harvest. Cells were trypsinized and pelleted prior to washing twice with ice-cold PBS. Cells were then resuspended in 800 μL ice-cold 10 mM HEPES pH 7.4, 10 mM KCl, 0.05% NP-40, and histone deacetylase and protease inhibitors (1 mM sodium butyrate, 4 μM trichostatin A, 100 μM phenylmethylsulfonyl fluoride, 10 μg/mL leupeptin, and 10 μg/mL aprotinin) for 20 minutes. After a 1,000×g 10 minute spin at 4° C. the pelleted nuclei were resuspended in 0.2 M HCl and incubated on ice for 20 minutes. Following 10 minute spin at 21,000×g at 4° C. the acid extracted supernatant was neutralized with 1 M Tris-HCl pH 8 prior to BCA protein concentration measurement. Histone deacetylation assays were ran with 75 μg/mL extracted histones, 1 μM SIRT6, 50 μM CL5, CL5D or 5% DMSO control, 0.5 mM NAD^+, in 20 mM potassium phosphate pH 7.5. Reactions ran at 37° C. prior to quench with SDS loading dye and 5 minute boil. 540 ng of nuclei acid extract following sirtuin reaction were loaded for 15% SDS-PAGE followed by transfer to nitrocellulose. Membrane was blocked with 1% milk before blotted with anti-H3K9ac (Active Motiff 39917) 1:3000 and imaged. […] Bands were quantified using Image Studio Lite (LiCor). […]
Background: In western blotting, separated proteins are transferred to a membrane and probed.

Bounds are passed on as bounds.

T1 sequence (Q8N6T7 whole entry): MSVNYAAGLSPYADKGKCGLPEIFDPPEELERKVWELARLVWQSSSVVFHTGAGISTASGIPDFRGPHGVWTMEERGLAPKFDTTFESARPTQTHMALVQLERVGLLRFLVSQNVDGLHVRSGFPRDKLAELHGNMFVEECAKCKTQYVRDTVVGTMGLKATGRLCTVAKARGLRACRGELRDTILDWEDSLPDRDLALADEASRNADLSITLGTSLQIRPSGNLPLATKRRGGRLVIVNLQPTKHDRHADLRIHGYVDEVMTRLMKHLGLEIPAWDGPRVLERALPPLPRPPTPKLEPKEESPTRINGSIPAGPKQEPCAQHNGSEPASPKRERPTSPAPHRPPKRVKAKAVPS

In the case of `CCCCCCCCCCCCCCC(F)C(=O)O` (stereo not shown) [2-Fluoropalmitic acid], the “F.A. (fold-activation of SIRT6 relative to DMSO control)” value on SIRT6 [1] was determined as 25 fold.
As to `CCCCC/C=C\C/C=C\C/C=C\C/C=C\CCCC(=O)O` [Arachidonic acid (20:4 n-6)], on SIRT6 [1], the “F.A. (fold-activation of SIRT6 relative to DMSO control)” value worked out at 15 fold.
Turning to `O=C(O)c1ccc2c(c1)C(=O)N(c1ccc(NC(=O)c3ccccc3)cc1)C2=O` [CL-5, 2-(4-benzamidophenyl)-1,3-dioxoisoindoline-5-carboxylic acid], the “concentration required to stimulate 4-fold activation of SIRT6” value at SIRT6 [2] (SIRT6 1 μM, H3K9ac 20 μM, 0.5 mM NAD+) was over 400 µM. The “activation of SIRT6 (in words)” value on SIRT6 [2] (concentrations up to 400 μM) is “no activation”. Also, the “SIRT6 deacetylation at H3K9 of whole histone substrate (in words)” value at SIRT6 [3] is recorded as “not”.
Take `CCCCCCCC/C=C\CCCCCCCC(=O)OCC(O)COP(=O)(O)O` (stereo not shown) [Lysophosphatidic acid, oleoyl-lysophosphatidic acid, reference compound]: a half-maximal response on SIRT6 [2] (SIRT6 1 μM, 0.5 mM NAD+) (EC50) required 25 ± 1 µM.
Regarding `CCCCCCCC/C=C\C/C=C\C/C=C\CCCC(=O)O` [Mead acid (20:3 n-9)], at SIRT6 [1], the “F.A. (fold-activation of SIRT6 relative to DMSO control)” value amounted to 16 fold.
As to `C/C(=C\c1ccc(C(=O)O)cc1)c1ccc2c(c1)C(C)(C)CCC2(C)C` [TTNPB, arotinoid acid, reference compound], at SIRT6 [2] (SIRT6 1 μM, 0.5 mM NAD+), the response was half-maximal at 53 ± 3 µM (EC50).
Take `CCCCCCCCCCCCCC(=O)O` [myristic acid]: the “F.A. (fold-activation of SIRT6 relative to DMSO control)” value at SIRT6 [1] came to 3.7 fold.
The same measure, in the same setting: the result for Eicosatrienoic acid (20:3 n-3) reads 17 fold.
